Columns and labels:
arteriosclerotic rats = experiment: Effect of vitamin K2 on arteriosclerotic rats (vitamin D2-induced calcification); type: in vivo
Procedure: Then vitamin D2, vitamin D2 with vitamin K2 (in a low dose), and vitamin D2 with vitamin K2 (in a high dose) were given respectively to the groups A, B and C.
After feeding for five weeks, the urine of each group was sampled for a period of 20 hours and the urinary calcium, phosphorus and creatinine levels were measured.
After feeding for six weeks, the animals of each group were bled to death and the blood, aorta (from the aortic arch to the thoracic aorta) and kidneys were sampled.
The serum was separated from the blood and the serum calcium and phosphorus levels were measured.
The aorta and kidneys were defatted, dehydrated and incinerated and the calcium and phosphorus contents therein were determined.
The calcium concentrations were determined by atomic absorption spectrophotometry. The inorganic phosphorus concentrations were determined by Goldenberg's method. The creatinine concentrations were determined by the enzymatic method.
(The data of each group were compared with those of the control group according to the t-test method.)

beagles = experiment: Acute (single administration) toxicity test in beagles; type: in vivo; settings: Beagle F, medium 5% gum arabic
Procedure: (§1) Next, the results of the acute toxicity test of 2-methyl-3-[(2E,6E,10E)-3,7,11,15-tetramethyl-2,6,10,14-hexadecatetraenyl]naphthoquinone (generic name: vitamin K2), which is a typical example of the compound of the present invention, will be given. An acute toxicity test was conducted as follows:
(§2) A single administration toxicity test was effected by orally, subcutaneously and intraperitoneally administering the test compound (medium: 5% gum arabic) to SD rats, ICR mice and beagles aged 7 to 8 weeks (5 females and 5 males in each case).

[1] = as above; type: in vivo; settings: dog, in vivo, Beagle M, medium 5% gum arabic
Procedure: as §1, §2

[2] = Acute (single administration) toxicity test in mice; type: in vivo, ICR mice; settings: in vivo, Mouse M, medium 5% gum arabic
Procedure: as §1, §2

ICR mice = experiment: as above; type: in vivo; settings: Mouse F, medium 5% gum arabic
Procedure: as §1, §2

SD rats = experiment: Acute (single administration) toxicity test in rats; type: in vivo; settings: Rat F, medium 5% gum arabic
Procedure: as §1, §2

[3] = as above; type: in vivo, SD rats; settings: in vivo, Rat M, medium 5% gum arabic
Procedure: as §1, §2

[4] = Group A: vitamin D2 2.5 × 10^5 IU/kg/day p.o. alone, 6 weeks, n=8

## CC(C)=CCC/C(C)=C/CC/C(C)=C/CC/C(C)=C/CC1=C(C)C(=O)c2ccccc2C1=O [vitamin K2, 2-Methyl-3-[(2E,6E,10E)-3,7,11,15-tetramethyl-2,6,10,14-hexadecatetraenyl]naphthoquinone]
Arteriosclerotic rats; po, 10 mg/kg, 1008 h
  Aorta Ca: 5.0 ± 3.8 mg/dL
  Aorta P: 12.6 ± 12.2 mg/dL
  Kidney Ca: 3.4 ± 3.8 mg/dL
  Kidney P: 6.3 ± 2.7 mg/dL
Arteriosclerotic rats; po, 100 mg/kg, 1008 h
  Aorta Ca: 2.6 ± 3.2 mg/dL
  Aorta P: 3.7 ± 4.3 mg/dL
  Kidney Ca: 1.6 ± 1.4 mg/dL
  Kidney P: 4.5 ± 1.4 mg/dL
beagles; intraperitoneal
  LD50: >3000 mg/kg
beagles; oral
  LD50: >3000 mg/kg
beagles; subcutaneous
  LD50: >3000 mg/kg
[1]; ip, intraperitoneal
  LD50: > 3000 mg/kg
[1]; oral
  LD50: > 3000 mg/kg
[1]; sc, subcutaneous
  LD50: > 3000 mg/kg
[2]; ip, intraperitoneal
  LD50: > 5000 mg/kg
[2]; oral
  LD50: > 5000 mg/kg
[2]; sc, subcutaneous
  LD50: > 5000 mg/kg
ICR mice; intraperitoneal
  LD50: >5000 mg/kg
ICR mice; oral
  LD50: >5000 mg/kg
ICR mice; subcutaneous
  LD50: >5000 mg/kg
SD rats; intraperitoneal
  LD50: >5000 mg/kg
SD rats; oral
  LD50: >5000 mg/kg
SD rats; subcutaneous
  LD50: >5000 mg/kg
[3]; ip, intraperitoneal
  LD50: > 5000 mg/kg
[3]; oral
  LD50: > 5000 mg/kg
[3]; sc, subcutaneous
  LD50: > 5000 mg/kg

## C=C1CC[C@H](O)C/C1=C/C=C1\CCC[C@]2(C)[C@@H]([C@H](C)/C=C/[C@H](C)C(C)C)CC[C@@H]12 [vitamin D2]
Arteriosclerotic rats; [4]
  Aorta Ca: 11.6 ± 11.1 mg/dL
  Aorta P: 10.9 ± 7.1 mg/dL
  Kidney Ca: 7.6 ± 7.8 mg/dL
  Kidney P: 7.2 ± 2.0 mg/dL
Arteriosclerotic rats; group A, vitamin D2 2.5 × 10^5 IU/kg/day p.o. alone, 6 weeks
  calcium and phosphorus contents in the aorta: significant increases

— patent publication EP0679394B1, “Menatetronome derivative as antiarteriosclerotic agent” (Eisai Co., Ltd., priority 1994, dated 1995)
